Measured values reported in PMC11807261 (ACS infectious diseases, 2022).
“Also recorded” adds a separate entry of the source. Like-named read-outs stand apart in the source and are kept apart here.

Legend:
[1] = molecular target: T1, Mtb GlnA1 (Mycobacterium tuberculosis, UniProt P9WN39); experiment: biochemical
T1 construct: His6 (N); made in house; host or cells: E. coli BL21(DE3)

[2] = molecular target: recombinant human glutamine synthetase (GS) (Homo sapiens, UniProt P15104); experiment: biochemical; assay type: biochemical; settings: for inhibition of recombinant human GS: LIN at 100 µM (Figure S7)
[3] = tested on: Mtb H37Rv; assay type: cell-based, Mycobacterium tuberculosis
[4] = Cytotoxicity (CC50); assay type: cell-based; settings: African green monkey, Vero E6 cells
[5] = tested on: THP-1 macrophages; assay type: cell-based
[6] = tested on: Mtb H37Rv within THP-1 macrophages; assay type: cell-based, Mycobacterium tuberculosis
[7] = compounds directly from MMV Pathogen Box library plates, read-out: IC50 (μM), library
[8] = compounds resupplied from MMV, mean ± SE (n=3), read-out: IC50 (μM), resupply

T1 sequence (P9WN39 whole entry): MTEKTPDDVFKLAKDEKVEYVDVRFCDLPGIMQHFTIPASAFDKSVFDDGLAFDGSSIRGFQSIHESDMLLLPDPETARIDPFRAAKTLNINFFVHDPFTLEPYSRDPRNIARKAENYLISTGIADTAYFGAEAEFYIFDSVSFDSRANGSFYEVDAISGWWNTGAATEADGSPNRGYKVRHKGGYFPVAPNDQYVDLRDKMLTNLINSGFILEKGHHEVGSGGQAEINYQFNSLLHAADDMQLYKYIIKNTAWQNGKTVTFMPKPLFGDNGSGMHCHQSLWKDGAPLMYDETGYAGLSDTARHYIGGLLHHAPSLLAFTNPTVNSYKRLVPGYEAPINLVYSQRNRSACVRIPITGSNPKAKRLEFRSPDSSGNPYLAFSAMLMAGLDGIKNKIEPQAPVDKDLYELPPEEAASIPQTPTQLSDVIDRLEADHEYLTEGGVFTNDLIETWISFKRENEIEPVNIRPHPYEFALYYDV
recombinant human glutamine synthetase (GS), sequence (P15104 whole entry): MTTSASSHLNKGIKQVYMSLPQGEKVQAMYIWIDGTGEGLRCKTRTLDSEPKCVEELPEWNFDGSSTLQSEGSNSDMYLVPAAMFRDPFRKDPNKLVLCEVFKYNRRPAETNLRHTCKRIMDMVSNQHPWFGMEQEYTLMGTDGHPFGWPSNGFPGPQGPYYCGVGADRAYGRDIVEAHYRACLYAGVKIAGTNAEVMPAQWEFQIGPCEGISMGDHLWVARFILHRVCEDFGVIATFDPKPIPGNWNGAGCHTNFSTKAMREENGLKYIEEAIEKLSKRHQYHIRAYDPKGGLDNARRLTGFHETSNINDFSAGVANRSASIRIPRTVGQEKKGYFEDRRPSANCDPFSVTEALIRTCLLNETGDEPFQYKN

## COc1ccc2cc(-c3nc(C(C)(C)C)[nH]c3-c3ccnc(N)c3)ccc2c1 [11a]
[1]
  IC50: 0.53 ± 0.027 µM
[2]
  inhibition of recombinant human GS: did inhibit it considerably
[2]; malachite green assay, read-out: IC50 against human GS
  IC50: ~10400 nM

## CP(=O)(O)CCC(N)C(=O)O (racemic) [PPT, DL-phosphinothricin]
[1]
  IC50: 4.45 ± 0.19 µM

## CC(C)(CN)c1nc(-c2ccc(Cl)c(O)c2)c(-c2ccnc(N)n2)[nH]1 [MMV030734]
[1]; [7]
  IC50: 1.38 µM
[1]; [8]
  IC50: 1.84 ± 0.09 µM

## Cc1nc(-c2ccccn2)nc(N2CCC(Cc3ccccc3)C2)c1Cl (stereo not shown) [MMV659004]
[1]; [7]
  IC50: 1.14 µM
[1]; [8]
  IC50: 0.66 ± 0.04 µM

## c1ccc(-c2nc(NC3CCCCC3)cc(C3CC3)n2)nc1 [MMV021013]
[1]; [7]
  IC50: 0.69 µM
[1]; [8]
  IC50: 0.69 ± 0.08 µM

## C[C@]1(O)C[C@@H](c2nc(-c3ccc4ccc(-c5ccccc5)nc4c3)c3c(N)nccn32)C1 [LIN, linsitinib]
[3]
  growth inhibition concentration (GIC): ~ 21 μM
[4]
  CC50: 67500 nM
[2]
  inhibition of recombinant human GS: did not inhibit; also recorded: does not inhibit
[5]
  level of mTOR phosphorylation: reduce the level of mTOR phosphorylation
  level of p62 (autophagy flux): seemingly reduced
[5]; 10 μM LIN, Western blotting
  apoptosis induction (cleaved caspase 3): no apoptosis induction
  autophagy induction (LC3B-II converted from LC3B-I): induced autophagy
[5]; mRFP-GFP-LC3 reporter THP-1, 10 μM LIN 24 h, Mtb-infected and uninfected
  autophagosome and autolysosome forming puncta: elevated
[6]
  intracellular Mtb killing in combination with bedaquiline (CFU): eliminated more intracellular Mtb and improved the killing effect of BDQ
  survival of intracellular Mtb (CFU): significantly decreased the survival

## Cc1ccc(NC(=O)c2nc[nH]c2C(=O)Nc2nc3ccccc3[nH]2)c(C)c1 [MMV011903]
[1]; [7]
  IC50: 0.78 µM
[1]; [8]
  IC50: 1.63 ± 0.2 µM
